Laboratory results published in paper PMC7714403 (JCI Insight, 2020).

Columns and labels:
MERTK = target: T1, MERTK (Homo sapiens, UniProt Q12866); experiment: KdELECT binding assay
T1 construct: purchased Eurofins DiscoverX

FGFR1 = target: T2, FGFR1 (Homo sapiens, UniProt P11362); experiment: KdELECT binding assay
T2 construct: purchased Eurofins DiscoverX

FLT3 D835Y = target: T3, FLT3 D835Y (Homo sapiens, UniProt P36888, D835Y); experiment: KdELECT binding assay
T3 construct: purchased Eurofins DiscoverX

ABL, ARG = experiment: KiNativ, OCI cells live cell; assay type: cell-based, human
BARK1 = BARK1 (Homo sapiens, UniProt P25098); experiment: KiNativ, OCI cells live cell; assay type: cell-based; conditions: 2 h, labeling site Lys2, peptide […]
CaMKK2 = CaMKK2 (Homo sapiens, UniProt Q96RR4); experiment: KiNativ, OCI cells live cell; assay type: cell-based; conditions: 2 h, labeling site Lys2, peptide […]
CASK = CASK (Homo sapiens, UniProt O14936); experiment: KiNativ, OCI cells live cell; assay type: cell-based; conditions: 2 h, labeling site Lys1, peptide […]
CDK2 = CDK2 (Homo sapiens, UniProt P24941); experiment: KiNativ, OCI cells live cell; assay type: cell-based
CK1a = CK1a (Homo sapiens, UniProt P48729); experiment: KiNativ, OCI cells live cell; assay type: cell-based; conditions: 2 h, labeling site Lys2, peptide […]
CRK7 = CRK7 (Homo sapiens, UniProt Q9NYV4); experiment: KiNativ, OCI cells live cell; assay type: cell-based; conditions: labeling site Lys2, peptide DIKCSNILLNNSGQIK
[1] = tested on: FGFR1, FMS, PDGFRb, TYRO3; experiment: KiNativ, OCI cells live cell; assay type: cell-based, human; conditions: labeling site Lys1, peptide VAVKMLK
HPK1 = HPK1 (Homo sapiens, UniProt Q92918); experiment: KiNativ, OCI cells live cell; assay type: cell-based; conditions: 2 h
JAK1 domain1 = target: T4, JAK1 domain1 (Homo sapiens, UniProt P23458); experiment: KiNativ, OCI cells live cell; assay type: cell-based; conditions: labeling site Activation Loop, peptide QLASALSYLEDKDLVHGNVCTKNLLLAR
T4 construct: JAK1 domain1

LKB1 = LKB1 (Homo sapiens, UniProt Q15831); experiment: KiNativ, OCI cells live cell; assay type: cell-based; conditions: 2 h, labeling site Lys2, peptide […]
MAP2K3 = target: T5, MAP2K3 (Homo sapiens, UniProt P46734); experiment: KiNativ, OCI cells live cell; assay type: cell-based; conditions: 2 h
T5 sequence (P46734 1-347): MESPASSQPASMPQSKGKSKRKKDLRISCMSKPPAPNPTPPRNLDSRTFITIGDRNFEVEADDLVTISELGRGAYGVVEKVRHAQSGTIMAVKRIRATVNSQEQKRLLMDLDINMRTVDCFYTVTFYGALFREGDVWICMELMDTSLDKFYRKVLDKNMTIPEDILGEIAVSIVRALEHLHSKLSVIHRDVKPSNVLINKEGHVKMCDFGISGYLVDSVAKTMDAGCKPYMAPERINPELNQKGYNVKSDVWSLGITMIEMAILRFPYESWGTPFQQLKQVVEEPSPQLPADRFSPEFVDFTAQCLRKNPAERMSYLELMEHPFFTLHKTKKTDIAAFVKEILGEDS

MAP3K15, MAP3K5, MAP3K6 = experiment: KiNativ, OCI cells live cell; assay type: cell-based, human; conditions: labeling site Lys1, peptide IAIKEIPER
MELK = MELK (Homo sapiens, UniProt Q14680); experiment: KiNativ, OCI cells live cell; assay type: cell-based; conditions: 2 h, labeling site Lys2, peptide […]
MST2 = MST2 (Homo sapiens, UniProt Q13188); experiment: KiNativ, OCI cells live cell; assay type: cell-based; conditions: 2 h, labeling site Lys1, peptide […]
NDR1, NDR2 = experiment: KiNativ, OCI cells live cell; assay type: cell-based, human; conditions: labeling site Activation Loop, peptide LSDFGLCTGLKK
NDR2 = NDR2 (Homo sapiens, UniProt Q9Y2H1); experiment: KiNativ, OCI cells live cell; assay type: cell-based; conditions: 2 h
NEK2 = NEK2 (Homo sapiens, UniProt P51955); experiment: KiNativ, OCI cells live cell; assay type: cell-based; conditions: 2 h, labeling site Lys2, peptide […]
NEK4 = NEK4 (Homo sapiens, UniProt P51957); experiment: KiNativ, OCI cells live cell; assay type: cell-based; conditions: 2 h, labeling site Lys2, peptide […]
NLK = NLK (Homo sapiens, UniProt Q9UBE8); experiment: KiNativ, OCI cells live cell; assay type: cell-based; conditions: 2 h, labeling site Lys2, peptide […]
p38a = p38a (Homo sapiens, UniProt Q16539); experiment: KiNativ, OCI cells live cell; assay type: cell-based
p38b = p38b (Homo sapiens, UniProt Q15759); experiment: KiNativ, OCI cells live cell; assay type: cell-based; conditions: 2 h, labeling site Other, peptide […]
PCTAIRE2 = PCTAIRE2 (Homo sapiens, UniProt Q00537); experiment: KiNativ, OCI cells live cell; assay type: cell-based; conditions: 2 h, labeling site Lys2, peptide […]
PYK2 = PYK2 (Homo sapiens, UniProt Q14289); experiment: KiNativ, OCI cells live cell; assay type: cell-based; conditions: 2 h
RIPK3 = RIPK3 (Homo sapiens, UniProt Q9Y572); experiment: KiNativ, OCI cells live cell; assay type: cell-based; conditions: 2 h, labeling site Lys2, peptide […]
[2] = tested on: RSK1 domain1, RSK2 domain1, RSK3 domain1; experiment: KiNativ, OCI cells live cell; assay type: cell-based, human; conditions: labeling site Lys2, peptide DLKPENILLDEEGHIK
TBK1 = TBK1 (Homo sapiens, UniProt Q9UHD2); experiment: KiNativ, OCI cells live cell; assay type: cell-based; conditions: 2 h, labeling site Lys1, peptide […]
TEC = TEC (Homo sapiens, UniProt P42680); experiment: KiNativ, OCI cells live cell; assay type: cell-based; conditions: 2 h, labeling site Activation Loop, peptide […]

Sequence of p38a (Q16539 whole entry): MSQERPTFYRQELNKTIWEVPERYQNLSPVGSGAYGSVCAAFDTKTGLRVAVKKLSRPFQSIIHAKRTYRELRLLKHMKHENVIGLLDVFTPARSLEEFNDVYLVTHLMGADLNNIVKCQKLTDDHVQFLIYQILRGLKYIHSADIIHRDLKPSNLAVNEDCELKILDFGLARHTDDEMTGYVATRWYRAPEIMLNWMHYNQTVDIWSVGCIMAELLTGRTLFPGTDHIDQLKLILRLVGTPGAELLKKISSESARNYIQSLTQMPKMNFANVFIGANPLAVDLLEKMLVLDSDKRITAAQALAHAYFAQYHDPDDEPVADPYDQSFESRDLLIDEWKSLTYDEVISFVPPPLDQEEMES
Sequence of HPK1 (Q92918 whole entry, the tested form may be a part): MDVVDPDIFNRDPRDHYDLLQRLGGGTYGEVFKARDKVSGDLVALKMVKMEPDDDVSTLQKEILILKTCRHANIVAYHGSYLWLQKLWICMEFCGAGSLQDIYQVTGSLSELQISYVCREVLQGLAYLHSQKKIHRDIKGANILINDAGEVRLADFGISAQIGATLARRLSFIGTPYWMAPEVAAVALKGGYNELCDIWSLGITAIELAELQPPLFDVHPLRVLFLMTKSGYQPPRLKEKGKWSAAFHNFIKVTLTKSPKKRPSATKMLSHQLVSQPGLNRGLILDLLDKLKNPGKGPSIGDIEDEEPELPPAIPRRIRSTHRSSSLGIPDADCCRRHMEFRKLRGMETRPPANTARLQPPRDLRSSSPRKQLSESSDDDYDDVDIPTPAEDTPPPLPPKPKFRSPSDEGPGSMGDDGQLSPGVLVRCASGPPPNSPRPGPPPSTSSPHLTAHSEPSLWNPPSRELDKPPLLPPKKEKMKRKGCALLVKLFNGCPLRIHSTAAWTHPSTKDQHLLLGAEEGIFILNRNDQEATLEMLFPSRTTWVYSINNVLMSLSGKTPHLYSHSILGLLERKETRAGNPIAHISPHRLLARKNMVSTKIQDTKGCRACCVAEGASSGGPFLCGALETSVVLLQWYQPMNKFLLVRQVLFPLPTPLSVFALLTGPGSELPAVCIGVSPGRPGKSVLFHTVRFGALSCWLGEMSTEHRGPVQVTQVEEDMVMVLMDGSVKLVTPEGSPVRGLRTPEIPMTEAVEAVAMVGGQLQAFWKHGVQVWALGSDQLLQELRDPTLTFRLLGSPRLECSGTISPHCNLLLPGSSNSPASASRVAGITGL
Sequence of NDR2 (Q9Y2H1 whole entry): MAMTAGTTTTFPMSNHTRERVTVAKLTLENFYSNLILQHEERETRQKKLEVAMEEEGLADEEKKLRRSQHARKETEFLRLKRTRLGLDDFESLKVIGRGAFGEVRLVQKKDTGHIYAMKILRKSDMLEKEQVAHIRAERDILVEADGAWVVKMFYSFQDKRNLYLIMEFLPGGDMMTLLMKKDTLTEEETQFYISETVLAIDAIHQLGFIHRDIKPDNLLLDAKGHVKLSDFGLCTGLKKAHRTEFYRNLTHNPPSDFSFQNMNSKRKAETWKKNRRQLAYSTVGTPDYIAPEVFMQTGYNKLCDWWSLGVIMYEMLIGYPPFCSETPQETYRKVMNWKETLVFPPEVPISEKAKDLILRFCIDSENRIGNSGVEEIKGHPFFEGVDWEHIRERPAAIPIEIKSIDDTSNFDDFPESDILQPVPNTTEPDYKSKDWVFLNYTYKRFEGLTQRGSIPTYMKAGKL
Sequence of PYK2 (Q14289 whole entry): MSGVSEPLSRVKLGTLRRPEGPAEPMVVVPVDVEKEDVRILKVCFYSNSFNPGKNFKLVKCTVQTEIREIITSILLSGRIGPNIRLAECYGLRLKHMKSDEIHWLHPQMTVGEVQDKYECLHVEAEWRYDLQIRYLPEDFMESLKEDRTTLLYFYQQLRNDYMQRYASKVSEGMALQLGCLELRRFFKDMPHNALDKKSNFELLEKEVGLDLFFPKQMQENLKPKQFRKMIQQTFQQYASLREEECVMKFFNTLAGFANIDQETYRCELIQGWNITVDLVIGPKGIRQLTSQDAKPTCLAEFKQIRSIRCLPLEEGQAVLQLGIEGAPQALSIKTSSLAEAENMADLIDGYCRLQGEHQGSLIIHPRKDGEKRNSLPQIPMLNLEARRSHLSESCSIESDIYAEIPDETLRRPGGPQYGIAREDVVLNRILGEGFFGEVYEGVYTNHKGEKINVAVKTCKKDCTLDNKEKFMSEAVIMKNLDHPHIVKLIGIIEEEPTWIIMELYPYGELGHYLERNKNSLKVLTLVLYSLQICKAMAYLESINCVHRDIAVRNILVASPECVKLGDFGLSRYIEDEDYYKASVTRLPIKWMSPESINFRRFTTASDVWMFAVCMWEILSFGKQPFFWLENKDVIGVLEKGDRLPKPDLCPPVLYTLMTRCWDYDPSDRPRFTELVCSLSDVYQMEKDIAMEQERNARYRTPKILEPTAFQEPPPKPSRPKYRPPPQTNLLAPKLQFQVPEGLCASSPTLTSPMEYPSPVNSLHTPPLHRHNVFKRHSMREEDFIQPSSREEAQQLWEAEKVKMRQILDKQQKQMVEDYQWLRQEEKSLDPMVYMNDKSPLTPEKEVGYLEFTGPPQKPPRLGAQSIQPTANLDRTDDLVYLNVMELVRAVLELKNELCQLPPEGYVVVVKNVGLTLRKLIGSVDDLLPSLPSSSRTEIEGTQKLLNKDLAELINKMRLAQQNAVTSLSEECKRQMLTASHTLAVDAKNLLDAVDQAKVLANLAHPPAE
Sequence of TBK1 (Q9UHD2 whole entry): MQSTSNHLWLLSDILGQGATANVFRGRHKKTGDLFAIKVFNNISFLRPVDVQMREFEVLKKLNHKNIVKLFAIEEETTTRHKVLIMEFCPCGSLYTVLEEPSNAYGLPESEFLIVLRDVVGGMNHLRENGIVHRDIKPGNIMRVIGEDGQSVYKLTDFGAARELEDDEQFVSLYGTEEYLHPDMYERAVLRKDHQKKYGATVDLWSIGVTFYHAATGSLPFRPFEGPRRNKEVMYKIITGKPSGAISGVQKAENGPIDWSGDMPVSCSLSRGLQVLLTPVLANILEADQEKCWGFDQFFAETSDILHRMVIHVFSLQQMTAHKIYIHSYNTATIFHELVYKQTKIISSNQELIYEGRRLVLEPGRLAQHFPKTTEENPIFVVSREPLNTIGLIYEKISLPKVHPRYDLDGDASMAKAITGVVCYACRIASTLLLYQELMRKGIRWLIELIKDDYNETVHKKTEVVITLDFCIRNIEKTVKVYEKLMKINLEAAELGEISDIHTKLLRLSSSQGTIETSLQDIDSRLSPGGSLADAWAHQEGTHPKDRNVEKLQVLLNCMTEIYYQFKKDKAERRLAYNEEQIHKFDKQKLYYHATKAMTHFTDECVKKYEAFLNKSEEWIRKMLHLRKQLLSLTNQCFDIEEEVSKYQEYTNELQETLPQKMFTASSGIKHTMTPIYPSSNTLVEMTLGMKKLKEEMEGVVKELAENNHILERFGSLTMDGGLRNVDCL
Sequence of CASK (O14936 whole entry): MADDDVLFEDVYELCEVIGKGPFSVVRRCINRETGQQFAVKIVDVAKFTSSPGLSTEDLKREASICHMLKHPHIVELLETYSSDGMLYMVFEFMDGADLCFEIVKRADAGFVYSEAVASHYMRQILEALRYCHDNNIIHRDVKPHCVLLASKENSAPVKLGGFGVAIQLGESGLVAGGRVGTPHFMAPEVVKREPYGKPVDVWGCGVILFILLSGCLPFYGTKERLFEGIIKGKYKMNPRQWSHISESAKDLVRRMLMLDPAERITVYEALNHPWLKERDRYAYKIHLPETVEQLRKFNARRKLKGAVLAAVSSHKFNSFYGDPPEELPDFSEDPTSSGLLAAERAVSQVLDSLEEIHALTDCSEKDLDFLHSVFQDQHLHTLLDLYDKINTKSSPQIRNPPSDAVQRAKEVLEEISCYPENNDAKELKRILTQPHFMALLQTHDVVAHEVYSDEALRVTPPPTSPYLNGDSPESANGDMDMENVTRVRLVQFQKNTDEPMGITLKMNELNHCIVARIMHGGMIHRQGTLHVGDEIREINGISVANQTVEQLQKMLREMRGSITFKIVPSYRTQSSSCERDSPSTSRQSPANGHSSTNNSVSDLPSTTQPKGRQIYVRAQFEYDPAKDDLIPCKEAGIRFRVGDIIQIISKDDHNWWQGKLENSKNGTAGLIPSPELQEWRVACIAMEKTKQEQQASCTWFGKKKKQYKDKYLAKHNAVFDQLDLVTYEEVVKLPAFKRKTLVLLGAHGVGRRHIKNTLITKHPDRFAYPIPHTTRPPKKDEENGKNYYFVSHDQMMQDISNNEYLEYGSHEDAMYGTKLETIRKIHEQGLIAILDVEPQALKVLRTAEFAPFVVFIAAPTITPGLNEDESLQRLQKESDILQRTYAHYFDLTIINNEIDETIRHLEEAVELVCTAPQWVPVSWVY
Sequence of NLK (Q9UBE8 whole entry): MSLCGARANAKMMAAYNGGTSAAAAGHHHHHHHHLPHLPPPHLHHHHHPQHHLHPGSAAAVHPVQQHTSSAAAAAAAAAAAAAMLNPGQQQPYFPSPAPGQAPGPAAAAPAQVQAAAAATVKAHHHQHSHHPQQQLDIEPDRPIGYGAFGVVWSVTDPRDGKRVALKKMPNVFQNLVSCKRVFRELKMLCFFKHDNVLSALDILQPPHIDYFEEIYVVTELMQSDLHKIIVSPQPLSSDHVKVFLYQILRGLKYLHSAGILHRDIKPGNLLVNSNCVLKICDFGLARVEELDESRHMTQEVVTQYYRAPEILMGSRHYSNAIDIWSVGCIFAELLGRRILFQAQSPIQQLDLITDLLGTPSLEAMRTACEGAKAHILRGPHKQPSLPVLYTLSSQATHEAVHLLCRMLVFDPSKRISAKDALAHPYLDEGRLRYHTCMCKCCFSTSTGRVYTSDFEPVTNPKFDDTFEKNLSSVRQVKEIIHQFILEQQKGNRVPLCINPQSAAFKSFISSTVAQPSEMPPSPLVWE

`CN1CCN(Cc2ccc(Nc3ncc(Cl)c(Nc4ccccc4S(=O)(=O)N(C)C)n3)cc2)CC1` [TP-0903] was tested, and the Kd (MERTK) was < 5 nM, the Kd (FGFR1) was 21 nM and the Kd (FLT3 D835Y) was 1.4 nM. For the same compound, the Inhibition (ABL, ARG; labeling site Activation Loop, peptide LMTGDTYTAHAGAKFPIK) was 37.3%, the Inhibition (ABL, ARG; labeling site Lys1, peptide YSLTVAVKTLKEDTMEVEEFLK) was 40.1% and the inhibition at 0.1 µM (BARK1) was -3.8%. The inhibition at 0.1 µM (CaMKK2) was 63.2%, the inhibition at 0.1 µM (CASK) was 31.2% and the Inhibition (CDK2; labeling site Lys1, peptide LTGEVVALKK) was 37.1%. The Inhibition (CDK2; labeling site Lys2, peptide DLKPQNLLINTEGAIK) was 41.4%, the inhibition at 0.1 µM (CK1a) was -12.3% and the Inhibition (CRK7) was 57.2%. The Inhibition [1] was 4.2%, the inhibition at 0.1 µM (HPK1; labeling site Lys1, peptide DKVSGDLVALKMVK) was 81% and the inhibition at 0.1 µM (HPK1; labeling site Lys2, peptide DIKGANILINDAGEVR) was 78.7%. For the same compound, the Inhibition (JAK1 domain1) was 87.3%, the inhibition at 0.1 µM (LKB1) was 25.7% and the inhibition at 0.1 µM (MAP2K3; labeling site Activation Loop, peptide MCDFGISGYLVDSVAKTMDAGCKPYMAPER) was 6.8%. It also gave an inhibition at 0.1 µM (MAP2K3; labeling site Lys1, peptide HAQSGTIMAVKR) of 8%, an inhibition at 0.1 µM (MAP2K3; labeling site Lys2, peptide DVKPSNVLINK) of 8.2% and an Inhibition (MAP3K15, MAP3K5, MAP3K6) of -14.4%. The inhibition at 0.1 µM (MELK) was 13.5%, the inhibition at 0.1 µM (MST2) was 7.3% and the Inhibition (NDR1, NDR2) was 18.3%. The inhibition at 0.1 µM (NDR2; labeling site Lys1, peptide DTGHIYAMKILR) was 21.5%, the inhibition at 0.1 µM (NDR2; labeling site Lys2, peptide DIKPDNLLLDAK) was -7% and the inhibition at 0.1 µM (NEK2) was 23.6%. It also gave an inhibition at 0.1 µM (NEK4) of -12.3%, an inhibition at 0.1 µM (NLK) of -23% and an Inhibition (p38a; labeling site Lys2, peptide DLKPSNLAVNEDCELK) of -2.7%. For the same compound, the Inhibition (p38a; labeling site Other, peptide QELNKTIWEVPER) was 5.6%, the inhibition at 0.1 µM (p38b) was -9.9% and the inhibition at 0.1 µM (PCTAIRE2) was 87.8%. It also gave an inhibition at 0.1 µM (PYK2; labeling site Activation Loop, peptide YIEDEDYYKASVTR) of 40.6%, an inhibition at 0.1 µM (PYK2; labeling site Lys1, peptide INVAVKTCK) of 80% and an inhibition at 0.1 µM (RIPK3) of 2.8%. It also gave an Inhibition [2] of 54.4%, an inhibition at 0.1 µM (TBK1) of 83% and an inhibition at 0.1 µM (TEC) of 31.9%.
